Results taken from US8524703B2, “Bridgehead amine ring-fused indoles and indolines” (AbbVie Inc., priority 2009, dated 2013).
“Also recorded” adds a separate entry of the source.

How the values were obtained:
[1] = system: primary postnatal (P0) cortical cells; experiment: Neurite Outgrowth Assay (neuroprotection against Aβ1-42-induced reduction of neurite outgrowth); type: cell-based, rat; conditions: for % Attenuation Effect of 5 μM Aβ 1-42: 5 μM Aβ1-42, 3 days, compound pretreatment about 5 hours; for Emax at 3 µM / Emax at 0.3 µM: Rattus norvegicus, relative to 300 nM dimebolin, read-out: Maximum Effect (of % 300 nM Dimebolin) at Concentration; for Emax at 3 µM: maximum response at 3000 nM test compound; for Emax at 0.3 µM: maximum response at 300 nM test compound
Protocol: In addition to PC12 cells, other cellular model systems may also be used. Rat cortical cells can be cultured and prepared for high content microscopy analysis as previously described (Hu, M.; Schurdak, M. E.; et al. High content screen microscopy analysis of Aβ1-42-induced neurite outgrowth reduction in rat primary cortical neurons: Neuroprotective effects of α7 neuronal nicotinic acetylcholine receptor ligands. Brain Res. 2007, 1151, 227-235.). Briefly, cortical cell cultures are plated at density of 5×10^5 cells/mL onto poly-D-lysine coated 96-well plates and maintained in a cell incubator at 37° C. with 5% CO2. Experiments are performed using 6-7 day-old cortical cell cultures by treating with test compounds. In some experiments, the effect of test compounds on reversing Aβ toxicity can also be measured (Hu, M.; Schurdak, M. E.; et al. High content screen microscopy analysis of Aβ1-42-induced neurite outgrowth reduction in rat primary cortical neurons: Neuroprotective effects of α7 neuronal nicotinic acetylcholine receptor ligands. Brain Res. 2007, 1151, 227-235.). For assessment of neuroprotective effects, cells are first pretreated with test compounds for about 5 hours. Medium is then replaced with the medium containing freshly prepared about 5 μM Aβ1-42 peptide in the absence or presence of the test compounds for 3 days. The untreated group contains the same percentage of vehicle (DMSO) as in the treatment groups. Cells are fixed with approximately 4% paraformaldehyde containing 0.5% Hoechst 33342 for about 15 minutes, followed by three washes using PBS (pH 7.4) and blocked with 10% donkey serum in PBS for 1 hour at room temperature. The cells are then incubated overnight at about 4° C. with mouse anti-tubulin monoclonal antibody (1:100) for staining neurons and rabbit anti-GFAP (1:1000) for staining glia. In the next day, cells are incubated with FITC-labeled anti-mouse and TRITC-labeled anti-rabbit antibodies (1:1000) for about 1 hour at room temperature. After fixing and staining the cells, nuclei (360/400 nm excitation and 465/300 nm emission filters), neuron (475/350 nm excitation and 535/400 nm emission filters) and glial cell (535 nm excitation and 610 nm emission filters) images are collected using the ImageExpress Micro automatic fluorescent microscopy system (Molecular Devices, Sunnyvale, Calif.) employing a Nikon 10× Plan Fluor objective and Cool Snap HQ CCD camera. The Neurite Outgrowth module in the MetaMorph Imaging software can be used to automatically count total cell number, number of neuron cells, and the extent of neurite outgrowth.
The neurite outgrowth observed for untreated cells is set to 100% response. Treatment of cells with compounds prior to and concomitantly with Aβ1-42 gave a neuroprotective effect with neurite outgrowth maintained or enhanced relative to untreated cells.

mice = experiment: Inhibitory Avoidance in Mouse (24-hour recall); type: in vivo; conditions: 24 hours after initial exposure, 0.001, 0.01, 0.1, and 1.0 mg/kg i.p., versus control
Protocol: Inhibitory Avoidance in Mouse: The inhibitory avoidance task involves the uses of a two-compartment step through apparatus (Ugo Basile, Collegeville, Pa.) that measures the animal's ability to remember a brief noxious stimulus (foot shock), and is considered a measure of trial learning, and memory consolidation. Briefly, 30 minutes after dosing, mice were placed in a lighted compartment of the apparatus where the latency to enter into the preferred dark compartment is recorded. Entry into a dark compartment results in the immediate delivery of a mild foot shock (0.2 mA, 1-second duration). Retention testing is conducted 24 hours later with the animal again placed in the lighted compartment where its latency to reenter the dark side of the apparatus is measured (no shock). Increasing retention latency is regarded as an index of memory consolidation (Bitner, R. S.; Bunnelle, W. H.; et al. Broad-spectrum efficacy across cognitive domains by α7 nicotinic acetylcholine receptor agonism correlates with activation of ERK1/2 and CREB phosphorylation pathways. J. Neurosci. 2007, 27 (39), 10578-10587.). […] (*p<0.05; **p<0.01, ***p<0.001 versus control)

[2] = system: SK-N-SH human neuroblastoma cells; experiment: Serum Deprivation/JC-1 Mitochondrial Membrane Potential (MMP) Assay; type: cell-based; conditions: for Emax: read-out: JC-1 max %; for EC50: serum deprivation ~18 hours, JC-1 ratio normalized to peak value for 10 μM dimebolin
Protocol: Tissue Culture: SK-N-SH human neuroblastoma cells obtained from American Type Culture Collection (Rockville, Md.) were maintained in the log phase of growth in Minimal Essential Media (MEM), 10% heat inactivated fetal calf serum and 100 units/mL antibiotic-antimycotic (AA). Cells were cultured and maintained in a humidified incubator at 37° C. under 5% CO2 and 95% air. Cells were trypsinized (0.25%) and subcultured every 3 days and used from 15-18 passages. All cell culture supplies were obtained from Invitrogen (Carlsbad, Calif.).
Serum Deprivation/JC-1 Mitochondrial Membrane Potential (MMP) Assay.
SK-N-SH cells were plated 2-3 days in advance at a concentration of 50,000 cells/well onto collagen coated black-walled 96 well plates (Becton-Dickinson, Bedford, Mass.) in a total volume of 200 μL. On day of experimental treatment, the media containing serum was aspirated from each well and rinsed once with MEM/1% AA without serum. The cells then were incubated overnight in 100 μL of MEM/1% AA (no serum) with and without dimebolin or novel chemical entities overnight for ˜18 hours. The following day, JC-1 dye (5,5′,6,6′-tetrachloro-1,1′,3,3′-tetraethylbenzimidazolcarbocyanide) was diluted 1:10 into MEM media according to the JC-1 Mitochondrial Membrane Potential Assay Kit: (Cayman Chemical Company, Ann Arbor, Mich.) and then 10 μL of the JC-1 dye solution was added to each well. The plates were centrifuged for 5 minutes at 400×g at room temperature followed by 40 minute incubation at 37° C. The plates were washed twice with 200 μL of provided Assay Buffer followed an addition of 100 μL of Assay Buffer to each well. The plates were read with an excitation and emission of 560 nm and 595 nM for red fluorescence and with an excitation and emission of […] and 535 nM for green fluorescence to determine the final JC-1 value taking the red to green fluorescence ratio. This assay is based on change in mitochondrial membrane potential (MMP) using this lipophilic cationic dye, JC-1, by monitoring the changes in the ratio of red to green fluorescence as the MMP depolarizes. This change in MMP reflects the health of the cell with healthy, viable cells have a high JC-1 ratio and high MMP whereas apoptotic, unhealthy cells have a low JC-1 ratio or low MMP.
For the ability of compounds to reverse the stress due to serum deprivation and increase the JC-1 ratio, the percent maximal intensity in JC-1 ratio was normalized to that induced by the peak value for 10 μM dimebolin and plotted against the compound concentration to calculate EC50 values and to control for plate-to-plate variability. Concentration-response data were analyzed using GraphPad Prism (San Diego, Calif.); the EC50 values were derived from a single curve fit to the mean data of n=2-3, in duplicates.
All compounds were dissolved in dimethyl sulfoxide at 10 mM stock solutions and tested at a concentration that the dimethyl sulfoxide levels never exceeded 1%.

[3] = system: Patients with mild-to-moderate Alzheimer's disease; conditions: cited from earlier work
[4] = system: primary rat cortical neurons; conditions: comparable to that evoked by BDNF; cited from earlier work
[5] = Homo sapiens, SK-N-SH, percent maximal JC-1 ratio normalized to peak value for 10 μM dimebolin

Compound	% Attenuation Effect of 5 μM Aβ 1-42 [1]	Emax [2, 5]	EC50 ([2]; Homo sapiens, SK-N-SH)	other results
Cc1ccc(/C=C/c2cccc3c4c([nH]c23)C2CCN(CC2)C4)cn1 [Example 1, 7-[(E)-2-(6-methylpyridin-3-yl)vinyl]-3,4,5,6-tetrahydro-1H-2,5-ethanoazepino[4,3-b]indole]	34%	139%	6.02 µM	Emax at 3 µM [1]: 106%; latency to reenter the dark side (punishment side) (mice): significantly increased; also recorded: concentration-dependent improvement
Cc1ccc(C#Cc2cccc3c4c([nH]c23)C2CCN(CC2)C4)cn1 [Example 3, 7-[(6-methylpyridin-3-yl)ethynyl]-3,4,5,6-tetrahydro-1H-2,5-ethanoazepino[4,3-b]indole]	43%	188%	4.36 µM	Emax at 3 µM [1]: 115%; latency to reenter the dark side (punishment side) (mice): significantly increased; also recorded: concentration-dependent improvement
Cc1ccc(/C=C/c2ccc3[nH]c4c(c3c2)CN2CCC4CC2)cn1 [Example 8, 9-[(E)-2-(6-methylpyridin-3-yl)vinyl]-3,4,5,6-tetrahydro-1H-2,5-ethanoazepino[4,3-b]indole]	49%	162%	4.05 µM	Emax at 0.3 µM [1]: 121%
c1cnc2ccc(-c3cccc4c5c([nH]c34)C3CCN(CC3)C5)cc2c1 [Example 27, 7-quinolin-6-yl-3,4,5,6-tetrahydro-1H-2,5-ethanoazepino[4,3-b]indole]	38%	133%	6.39 µM	Emax at 0.3 µM [1]: 109%
Cc1ccc(/C=C/c2cccc3c2NC2C4CCN(CC4)CC32)cn1 (stereo not drawn) [Example 36, (cis)-7-[(E)-2-(6-methylpyridin-3-yl)vinyl]-3,4,5,5a,6,10b-hexahydro-1H-2,5-ethanoazepino[4,3-b]indole]				JC-1 max % ([2]; percent maximal JC-1 ratio normalized to peak value for 10 μM dimebolin): 196%; EC50 [2]: 6.89 µM
Cc1ccc(-c2cccc3c4c([nH]c23)C2CCN(CC2)C4)cn1 [Example 37, 7-(6-methylpyridin-3-yl)-3,4,5,6-tetrahydro-1H-2,5-ethanoazepino[4,3-b]indole]		179%	8.66 µM	
c1cc(-c2cncnc2)c2[nH]c3c(c2c1)CN1CCC3CC1 [Example 38, 7-(pyrimidin-5-yl)-3,4,5,6-tetrahydro-1H-2,5-ethanoazepino[4,3-b]indole]		76%	10.5 µM	
c1cncc(-c2cccc3c4c([nH]c23)C2CCN(CC2)C4)c1 [Example 39, 7-(pyridin-3-yl)-3,4,5,6-tetrahydro-1H-2,5-ethanoazepino[4,3-b]indole]		113%	10.3 µM	
c1cc(-c2ccncc2)c2[nH]c3c(c2c1)CN1CCC3CC1 [Example 40, 7-(pyridin-4-yl)-3,4,5,6-tetrahydro-1H-2,5-ethanoazepino[4,3-b]indole]		92%	8.99 µM	
c1ccc2ncc(-c3cccc4c5c([nH]c34)C3CCN(CC3)C5)cc2c1 [Example 41, 7-(quinolin-3-yl)-3,4,5,6-tetrahydro-1H-2,5-ethanoazepino[4,3-b]indole]		171%	3.68 µM	
Cc1ccc2c(c1)c1c(n2CCc2ccc(C)nc2)CCN(C)C1 [dimebolin, 2,3,4,5-tetrahydro-2,8-dimethyl-5-[2-(6-methyl-3-pyridinyl)ethyl]-1H-pyrido[4,3-b]indole]				clinical course of disease, improvement over baseline for ADAS-Cog ([3]; 20 mg three times a day (60 mg/day)): significant improvement; most frequent adverse event ([3]; recently reported clinical studies): dry mouth; neurite outgrowth [4]: increase neurite outgrowth
